Experimental findings from patent US9120807B2, “Thienopyrimidine compounds” (Vernalis (R&D) Ltd., priority 2007, dated 2015) are described below.

Common to all, as to assay type: cell-based
Assay [1] addresses human adenosine A2B receptors (Homo sapiens (Human), UniProt P29275). Briefly: FLIPR calcium flux functional assay, A2B receptor. To be noted: mammalian cell line expressing human A2B. The protocol:
(§1) The use of a Fluorometric Imaging Plate Reader (FLIPR) to measure calcium flux in Adenosine-receptor expressing cells is a well-established technique. In this assay calcium flux is triggered by receptor activation and measured through the fluorescence of an incorporated calcium-sensitive dye. The potencies shown were determined using expressed human adenosine A2B receptors in mammalian cell lines. Selectivity values were obtained by using mammalian cell lines expressing the human adenosine A1, A2A and A3 receptors. Compound potency was determined from dose response curves and is reported as an IC50 value.
(§2) All examples were tested for activity in the functional assay described above.
In general terms: Calcium assays in cells follow changes in intracellular calcium, usually with a dye or a luminescent sensor.

For assay [2], the target named is human adenosine A3 receptor (Homo sapiens (Human), UniProt P0DMS8). Briefly: FLIPR calcium flux functional assay, A3 receptor. The settings on record: for Kb: mammalian cell line expressing human A3, calcium flux; for A3/A2b: selectivity ratio of Kb values. The protocol:
as §1, §2

Assay [3] concerns the target human adenosine A2A receptor (Homo sapiens (Human), UniProt P29274). Briefly: FLIPR calcium flux functional assay, A2A receptor. To be noted: for Kb: mammalian cell line expressing human A2A, calcium flux; for A2a/A2b: selectivity ratio of Kb values. The protocol: as §1, §2
For assay [4], the target named is human adenosine A1 receptor (Homo sapiens (Human), UniProt P30542). Briefly: FLIPR calcium flux functional assay, A1 receptor. To be noted: for Kb: mammalian cell line expressing human A1, calcium flux; for A1/A2b: selectivity ratio of Kb values. Here is the method:
as §1, §2

Bounds are passed on as bounds.

Sequence of human adenosine A3 receptor (P0DMS8 whole entry): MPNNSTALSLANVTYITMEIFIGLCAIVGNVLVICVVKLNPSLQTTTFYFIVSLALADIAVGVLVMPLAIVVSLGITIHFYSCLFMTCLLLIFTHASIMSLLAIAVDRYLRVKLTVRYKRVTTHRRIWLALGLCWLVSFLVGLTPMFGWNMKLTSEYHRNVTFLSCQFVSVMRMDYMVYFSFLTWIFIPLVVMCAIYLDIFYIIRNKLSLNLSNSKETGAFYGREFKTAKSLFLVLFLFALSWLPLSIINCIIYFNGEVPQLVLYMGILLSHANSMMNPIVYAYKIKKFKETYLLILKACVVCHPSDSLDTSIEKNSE
Sequence of human adenosine A2A receptor (P29274 whole entry): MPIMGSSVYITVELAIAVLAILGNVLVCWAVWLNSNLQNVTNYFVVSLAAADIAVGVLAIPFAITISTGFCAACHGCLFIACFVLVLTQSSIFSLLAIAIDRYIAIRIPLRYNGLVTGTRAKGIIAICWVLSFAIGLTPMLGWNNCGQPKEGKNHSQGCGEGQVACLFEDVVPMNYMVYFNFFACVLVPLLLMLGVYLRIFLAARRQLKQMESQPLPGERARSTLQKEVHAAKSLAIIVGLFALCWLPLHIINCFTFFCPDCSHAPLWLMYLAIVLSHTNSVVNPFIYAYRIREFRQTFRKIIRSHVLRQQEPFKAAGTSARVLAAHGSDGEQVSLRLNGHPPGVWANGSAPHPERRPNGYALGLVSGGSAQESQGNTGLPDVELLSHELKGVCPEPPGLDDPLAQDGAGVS
Sequence of human adenosine A1 receptor (P30542 whole entry): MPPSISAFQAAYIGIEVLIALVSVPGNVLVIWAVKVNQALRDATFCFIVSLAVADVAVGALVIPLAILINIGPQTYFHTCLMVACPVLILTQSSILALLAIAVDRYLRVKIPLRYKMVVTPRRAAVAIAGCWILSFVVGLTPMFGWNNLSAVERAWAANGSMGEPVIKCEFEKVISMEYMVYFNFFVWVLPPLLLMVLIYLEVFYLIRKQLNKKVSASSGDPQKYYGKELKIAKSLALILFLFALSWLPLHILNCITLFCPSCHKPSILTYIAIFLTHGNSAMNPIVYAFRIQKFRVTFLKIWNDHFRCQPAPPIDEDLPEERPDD
Sequence of human adenosine A2B receptors (P29275 whole entry): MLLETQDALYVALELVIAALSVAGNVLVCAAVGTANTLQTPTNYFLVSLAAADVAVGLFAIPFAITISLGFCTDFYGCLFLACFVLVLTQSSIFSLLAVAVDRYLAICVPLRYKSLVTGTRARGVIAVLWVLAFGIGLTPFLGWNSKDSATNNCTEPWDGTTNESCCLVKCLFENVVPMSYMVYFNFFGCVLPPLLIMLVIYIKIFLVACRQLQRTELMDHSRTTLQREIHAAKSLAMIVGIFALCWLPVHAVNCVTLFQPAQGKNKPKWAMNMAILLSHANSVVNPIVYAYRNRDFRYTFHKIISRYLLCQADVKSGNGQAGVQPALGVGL

Regarding `CNc1cc2nc(NCc3cccnc3)nc(C(=O)c3cccs3)c2s1` [Example 6, {6-Methylamino-2-[(pyridin-3-ylmethyl)-amino]-thieno[3,2-d]pyrimidin-4-yl}-thiophen-2-yl-methanone], the Kb in assay [1] was 1.4 nM. Besides, in assay [2], the Kb came out at 22.9 nM and the A3/A2b is 16. Further, in assay [3], the Kb turned out to be 277 nM and the A2a/A2b stood at 198. In assay [4], the Kb amounted to 57.6 nM and the A1/A2b is reported as 41.
Consider `CN(C)c1cc2nc(NCc3cccnc3)nc(C(=O)c3cccs3)c2s1` [Example 7, {6-dimethylamino-2-[(pyridine-3-ylmethyl)-amino]-thieno[3,2-d]pyrimidin-4-yl}-thiophen-2-yl-methanone], for which the Kb in assay [1] amounted to 6.5 nM; in assay [2], 130 nM; in assay [3], 318 nM; in assay [4], 19.4 nM. Further, the A3/A2b in assay [2] came out at 20. Further, the A2a/A2b in assay [3] is 49. Further, the A1/A2b in assay [4] came to 3.
Consider `CCNc1cc2nc(NCc3cccnc3)nc(C(=O)c3cccs3)c2s1` [Example 8, {6-Ethylamino-2-[(pyridin-3-ylmethyl)-amino]-thieno[3,2-d]pyrimidin-4-yl}-thiophen-2-yl-methanone], for which the Kb in assay [1] is 6.7 nM; in assay [2], 37.3 nM; in assay [3], 726 nM; in assay [4] it was 118 nM. Moreover, the A3/A2b in assay [2] is listed as 6. In addition, in assay [3], the A2a/A2b came out at 109. In addition, the A1/A2b in assay [4] turned out to be 18.
With `Nc1cc2nc(NCc3cccnc3)nc(C(=O)c3cccs3)c2s1` [Example 9, {6-Amino-2-[(pyridin-3-ylmethyl)-amino]-thieno[3,2-d]pyrimidin-4-yl}-thiophen-2-yl-methanone], in assay [1], the Kb is 7.1 nM. Further, in assay [2], the Kb turned out to be 233 nM and the A3/A2b is 33. Also, in assay [3], the Kb turned out to be 1400 nM and the A2a/A2b is greater than 196. For the same compound, in assay [4], the Kb was found to be 1100 nM and the A1/A2b is listed as 155.
For the compound `C=Cc1cc2nc(NCc3cccnc3)nc(C(=O)c3cccs3)c2s1` [Example 10, {2-[(Pyridin-3-ylmethyl)-amino]-6-vinyl-thieno[3,2-d]pyrimidin-4-yl}-thiophen-2-yl-methanone], the Kb in assay [1] came to 52.3 nM; in assay [2] it was 747 nM; in assay [3], 3750 nM; in assay [4], 161 nM. Also, the A3/A2b in assay [2] was 14. Besides, in assay [3], the A2a/A2b was greater than 71. Besides, the A1/A2b in assay [4] stood at 3.
For `CCc1cc2nc(NCc3cccnc3)nc(C(=O)c3cccs3)c2s1` [Example 11, {6-Ethyl-2-[(pyridin-3-ylmethyl)-amino]-thieno[3,2-d]pyrimidin-4-yl}-thiophen-2-yl-methanone], the Kb in assay [1] was 36.7 nM; in assay [2] it was 361 nM; in assay [3], 3750 nM; in assay [4], 216 nM. Besides, in assay [2], the A3/A2b amounted to 10. Also, the A2a/A2b in assay [3] was greater than 102. In assay [4], the A1/A2b is listed as 6.
As to `O=C(c1cccs1)c1nc(NCc2cccnc2)nc2cc(NCc3cccnc3)sc12` [Example 12, {6-(3-picolylamino)-2-[(pyridin-3-ylmethyl)-amino]-thieno[3,2-d]pyrimidin-4-yl}-thiophen-2-yl-methanone], in assay [1], the Kb was determined as 68.9 nM. Further, in assay [2], the Kb turned out to be 308 nM and the A3/A2b is listed as 4. In assay [3], the Kb was 828 nM and the A2a/A2b is reported as 12. Also, in assay [4], the Kb stood at 256 nM and the A1/A2b is given as 4.
